Test results from PubChem BioAssay AID1963865 (Molecular Pharmacology Branch, DTP, NCI, 2024).
Where “and” joins values, the source holds several entries; their conditions need not be identical. Equal values may be shown once.

Test system: KRAS PDC multicell spheroid viability
Experiment: Anticancer human tumor 825966-067-R-J1-PDC patient-derived colon carcinoma cell line growth inhibition [KRAS2]
Conditions: for viability, T/C: stronger effect = lower value
Outline: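 KRAS-mutant tumor cells were grown as spheroids with HUVEC endothelial cells and human MSCs as stroma. Targeted agents were tested alone and with KRAS pathway inhibitors. Doses started at or near clinical Cmax, or 10 microM, descending half-log.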

[1] = curve of first compound, second compound 0.1 µM
[2] = curve of first compound, second compound 0.316 µM
[3] = curve of first compound, second compound 1 µM
[4] = curve of first compound, second compound 3.16 µM
[5] = curve of first compound, second compound 10 µM
[6] = second compound 0.1 µM, first compound 0.0316 µM
[7] = second compound 0.1 µM, first compound 0.1 µM
[8] = second compound 0.316 µM, first compound 0.0316 µM
[9] = second compound 0.316 µM, first compound 0.1 µM
[10] = second compound 1 µM, first compound 0.0316 µM
[11] = second compound 1 µM, first compound 0.1 µM
[12] = second compound 3.16 µM, first compound 0.0316 µM
[13] = second compound 3.16 µM, first compound 0.1 µM
[14] = second compound 10 µM, first compound 0.0316 µM
[15] = second compound 10 µM, first compound 0.1 µM
[16] = second compound 0.1 µM, first compound 0.316 µM
[17] = second compound 0.1 µM, first compound 1 µM
[18] = second compound 0.1 µM, first compound 3.16 µM
[19] = second compound 0.1 µM, first compound 10 µM
[20] = second compound 0.316 µM, first compound 0.316 µM
[21] = second compound 0.316 µM, first compound 1 µM
[22] = second compound 0.316 µM, first compound 3.16 µM
[23] = second compound 0.316 µM, first compound 10 µM
[24] = second compound 1 µM, first compound 0.316 µM
[25] = second compound 1 µM, first compound 1 µM
[26] = second compound 1 µM, first compound 3.16 µM
[27] = second compound 1 µM, first compound 10 µM
[28] = second compound 3.16 µM, first compound 0.316 µM
[29] = second compound 3.16 µM, first compound 1 µM
[30] = second compound 3.16 µM, first compound 3.16 µM
[31] = second compound 3.16 µM, first compound 10 µM
[32] = second compound 10 µM, first compound 0.316 µM
[33] = second compound 10 µM, first compound 1 µM
[34] = second compound 10 µM, first compound 3.16 µM
[35] = second compound 10 µM, first compound 10 µM
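Also: spheroids exposed to compounds for 7 days.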
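For viability, T/C in this document: 100% = DMSO vehicle control viability.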

SMILES | IC50 [1] [µM] | IC50 [2] [µM] | IC50 [3] [µM] | IC50 [4] [µM] | IC50 [5] [µM] | viability, T/C [6] [%] | viability, T/C [7] [%] | viability, T/C [8] [%] | viability, T/C [9] [%] | viability, T/C [10] [%] | viability, T/C [11] [%] | viability, T/C [12] [%] | viability, T/C [13] [%] | viability, T/C [14] [%] | viability, T/C [15] [%] | viability, T/C [16] [%] | viability, T/C [17] [%] | viability, T/C [18] [%] | viability, T/C [19] [%] | viability, T/C [20] [%] | further results
CC(C)n1nc(-c2ccc3oc(N)nc3c2)c2c(N)ncnc21 + COc1cc2nc(C)nc(NC(C)c3cc(N)cc(C(F)(F)F)c3)c2cc1OC1CCOC1 | > 0.1 | > 0.1 | > 0.1 | > 0.1 | < 0.000316 | 79 | 99.4 | 84 | 81.7 | 82.8 | 75.2 | 82.2 | 81.5 | 11.2 | 3.11 | – | – | – | – | – | viability, T/C (second compound 0.1 µM, first compound 0.000316 µM): 59.7%; viability, T/C (second compound 0.1 µM, first compound 0.001 µM): 93.1%; viability, T/C (second compound 0.1 µM, first compound 0.00316 µM): 125%; viability, T/C (second compound 0.1 µM, first compound 0.01 µM): 154%; viability, T/C (second compound 0.316 µM, first compound 0.000316 µM): 97.1%; viability, T/C (second compound 0.316 µM, first compound 0.001 µM): 99%; viability, T/C (second compound 0.316 µM, first compound 0.00316 µM): 116%; viability, T/C (second compound 0.316 µM, first compound 0.01 µM): 137%; viability, T/C (second compound 1 µM, first compound 0.000316 µM): 100%; viability, T/C (second compound 1 µM, first compound 0.001 µM): 103%; viability, T/C (second compound 1 µM, first compound 0.00316 µM): 123%; viability, T/C (second compound 1 µM, first compound 0.01 µM): 131%; viability, T/C (second compound 3.16 µM, first compound 0.000316 µM): 115%; viability, T/C (second compound 3.16 µM, first compound 0.001 µM): 109%; viability, T/C (second compound 3.16 µM, first compound 0.00316 µM): 121%; viability, T/C (second compound 3.16 µM, first compound 0.01 µM): 63.7%; viability, T/C (second compound 10 µM, first compound 0.000316 µM): 6.15%; viability, T/C (second compound 10 µM, first compound 0.001 µM): 2.53%; viability, T/C (second compound 10 µM, first compound 0.00316 µM): 15.6%; viability, T/C (second compound 10 µM, first compound 0.01 µM): 12.3%
CC1OCC2(CCN(c3cnc(Sc4ccnc(N)c4Cl)c(N)n3)CC2)C1N (stereo unspecified) | – | – | – | – | – | – | – | – | – | – | – | – | – | – | – | – | – | – | – | – | viability, T/C (compound 0.0316 µM): 82% and 80.9% and 85.5%; viability, T/C (compound 0.1 µM): 92.7% [middle of 19 runs]; IC50 (compound alone, run of 08/19/2021): > 10 µM and 9.29 µM; IC50 (compound alone, run of 08/26/2021): 7.63 µM [middle of 5 runs]; IC50 (compound alone, run of 09/02/2021): > 10 µM and 8.08 µM; IC50 (curve of compound): 9.31 µM and 8.73 µM and > 10 µM
O=C(c1cc(Cc2n[nH]c(=O)c3ccccc23)ccc1F)N1CCN(C(=O)C2CC2)CC1 + CNCc1ccccc1-c1csc(C(C)Nc2nc(C)nc3cc(OC)c(OC)cc23)c1 | > 10 | > 10 | > 10 | < 0.0316 | < 0.0316 | 102 | 90.9 | 90.8 | 87.2 | 112 | 90.3 | 9.5 | 28.8 | 0.23 | 0.27 | 81.1 | 88.5 | 78.6 | 61.2 | 92.6 | viability, T/C [21]: 87.7%; viability, T/C [22]: 77.9%; viability, T/C [23]: 97.6%; viability, T/C [24]: 87.8%; viability, T/C [25]: 91.1%; viability, T/C [26]: 104%; viability, T/C [27]: 111%; viability, T/C [28]: 40.8%; viability, T/C [29]: 15.5%; viability, T/C [30]: 1.24%; viability, T/C [31]: 2.36%; viability, T/C [32]: 0.26%; viability, T/C [33]: 0.23%; viability, T/C [34]: 0.19%; viability, T/C [35]: 0.27%
COc1cc(Nc2ncc3c(n2)-c2ccc(Cl)cc2C(c2c(F)cccc2OC)=NC3)ccc1C(=O)O + COc1cc2nc(C)nc(NC(C)c3cc(N)cc(C(F)(F)F)c3)c2cc1OC1CCOC1 | > 10 | > 10 | > 10 | > 10 | < 0.0316 | 124 | 93.5 | 105 | 123 | 87 | 155 | 52 | 127 | 3.07 | 1.62 | 144 | 171 | 136 | 130 | 144 | viability, T/C [21]: 140%; viability, T/C [22]: 133%; viability, T/C [23]: 145%; viability, T/C [24]: 156%; viability, T/C [25]: 137%; viability, T/C [26]: 145%; viability, T/C [27]: 118%; viability, T/C [28]: 81.3%; viability, T/C [29]: 110%; viability, T/C [30]: 69.3%; viability, T/C [31]: 112%; viability, T/C [32]: 0.85%; viability, T/C [33]: 2.07%; viability, T/C [34]: 7.95%; viability, T/C [35]: 1.44%
CC1(C)CCC(CN2CCN(c3ccc(C(=O)NS(=O)(=O)c4ccc(NCC5CCOCC5)c([N+](=O)[O-])c4)c(Oc4cnc5[nH]ccc5c4)c3)CC2)=C(c2ccc(Cl)cc2)C1 + CC1OCC2(CCN(c3cnc(Sc4ccnc(N)c4Cl)c(N)n3)CC2)C1N | 2.22 | 2.23 | 2.14 | 2.36 | 1.97 | 103 | 88.4 | 102 | 104 | 99 | 110 | 122 | 126 | 69 | 78.2 | 116 | 114 | 25.6 | 11.1 | 119 | viability, T/C [21]: 96.9%; viability, T/C [22]: 29.6%; viability, T/C [23]: 3.21%; viability, T/C [24]: 119%; viability, T/C [25]: 110%; viability, T/C [26]: 19.3%; viability, T/C [27]: 4.73%; viability, T/C [28]: 111%; viability, T/C [29]: 119%; viability, T/C [30]: 26.6%; viability, T/C [31]: 4.06%; viability, T/C [32]: 131%; viability, T/C [33]: 141%; viability, T/C [34]: 11.5%; viability, T/C [35]: 2%
